Here are results for two compounds from patent US20030125322A1, “Crystalline form I of 2-methyl-4-(4-methyl-1-piperazinyl) 10H thieno [2,3-b][1,5]benzodiazepine” (SUN PARMACEUTICAL INDUSTRIES LIMITED, priority 2001, published 2003).

For data set [1] the following is noted: cited from earlier work; for colour stability on standing / storage: prior-art material as reported ('382 process Form I; '541 Form II).
The nature of data set [2]: Storage stability of the crystalline form (colour, infrared spectrum, x-ray diffractogram). The format is physicochemical. Conditions: for change in colour, Infrared spectrum and X-ray diffractogram on storage: accelerated conditions. An excerpt:
The crystalline Form I of 2-methyl-4-(4-methyl-1-piperazinyl)-10H-thieno[2,3-b][1,5]benzodiazepine of the present invention has a typical x-ray powder diffraction pattern as represented by d (interplanar spacing) values 9.9446, 8.5272, 8.1949, 6.8637, 6.3510, 5.4653, 4.8278, 4.7121, 4.5295, 4.2239, 4.0788, 3.8230, 3.7525, 3.6909, 3.4995, 3.3393, 3.1051, 2.9451, 2.8182, 2.7589, 2.5925, 2.3369, 2.0251, 1.9183; infrared absorbance bands at approximately 1456, 1365, 905, 757, 662 & 604 cm^−1 and a stable colour.

Entries after “also recorded” stand apart in the source; their conditions may differ.

In the case of `Cc1cc2c(s1)Nc1ccccc1N=C2N1CCN(C)CC1` [Form II, olanzapine, reference compound], the “colour stability on standing / storage” value in data set [1] was “satisfactory colour stability”.
Take `Cc1cc2c(s1)Nc1ccccc1N=C2N1CCN(C)CC1` [Form I, 2-methyl-4-(4-methyl-1-piperazinyl)-10H-thieno[2,3-b][1,5]benzodiazepine]: the “stability of crystal form” value in data set [1] (Form I obtained by the '382 process, as reported) is “metastable”. Also, the “colour stability on standing / storage” value in data set [1] was “colour changes upon storage and exposure to air; also recorded: change its colour on standing”. Besides, the “change in colour, Infrared spectrum and X-ray diffractogram on storage” value in data set [2] (40° C. and 75% relative humidity for one month) was “no changes in colour, infra-red spectrum and x-ray diffractogram”; in data set [2] (40° C. and 75% relative humidity for one month, listed as Example 2), “No change in colour, Infrared spectrum (KBr) and X-ray diffractogram”; in data set [2] (75-80° C. for 25 days), “no changes in colour, infra-red spectrum and x-ray diffractogram”; in data set [2] (75-80° C. for 25 days, listed as Example 2) it was “No change in colour, Infrared spectrum (KBr) and X-ray diffractogram”. The “change in colour, infrared spectrum and x-ray diffractogram on storage” value in data set [2] (ambient conditions of storage, about 15° C. to 35° C. and about 40% to 90% RH) is “no change in colour, infrared spectrum and x-ray diffractogram”. The “change in colour, Infrared spectrum (KBr) and X-ray diffractogram on storage” value in data set [2] (ambient conditions of storage, room temperature for one month) was “No change in colour, Infrared spectrum (KBr) and X-ray diffractogram”.
